Measured values reported in ChEMBL document CHEMBL1129295, “Studies of cardiotonic agents. 8. Synthesis and biological activities of optically active 6-(4-(benzylamino)-7-quinazolinyl)-4,5-dihydro-5-methyl-3(2H)- pyridazinone (KF15232)” (J Med Chem, 1996).
pIC50: −log10 of the molar value.

target: Phosphodiesterase 3B (Bos taurus, UniProt E1BN64); assay: Inhibition of bovine arterial Phosphodiesterase 3
Sequence (E1BN64 whole entry): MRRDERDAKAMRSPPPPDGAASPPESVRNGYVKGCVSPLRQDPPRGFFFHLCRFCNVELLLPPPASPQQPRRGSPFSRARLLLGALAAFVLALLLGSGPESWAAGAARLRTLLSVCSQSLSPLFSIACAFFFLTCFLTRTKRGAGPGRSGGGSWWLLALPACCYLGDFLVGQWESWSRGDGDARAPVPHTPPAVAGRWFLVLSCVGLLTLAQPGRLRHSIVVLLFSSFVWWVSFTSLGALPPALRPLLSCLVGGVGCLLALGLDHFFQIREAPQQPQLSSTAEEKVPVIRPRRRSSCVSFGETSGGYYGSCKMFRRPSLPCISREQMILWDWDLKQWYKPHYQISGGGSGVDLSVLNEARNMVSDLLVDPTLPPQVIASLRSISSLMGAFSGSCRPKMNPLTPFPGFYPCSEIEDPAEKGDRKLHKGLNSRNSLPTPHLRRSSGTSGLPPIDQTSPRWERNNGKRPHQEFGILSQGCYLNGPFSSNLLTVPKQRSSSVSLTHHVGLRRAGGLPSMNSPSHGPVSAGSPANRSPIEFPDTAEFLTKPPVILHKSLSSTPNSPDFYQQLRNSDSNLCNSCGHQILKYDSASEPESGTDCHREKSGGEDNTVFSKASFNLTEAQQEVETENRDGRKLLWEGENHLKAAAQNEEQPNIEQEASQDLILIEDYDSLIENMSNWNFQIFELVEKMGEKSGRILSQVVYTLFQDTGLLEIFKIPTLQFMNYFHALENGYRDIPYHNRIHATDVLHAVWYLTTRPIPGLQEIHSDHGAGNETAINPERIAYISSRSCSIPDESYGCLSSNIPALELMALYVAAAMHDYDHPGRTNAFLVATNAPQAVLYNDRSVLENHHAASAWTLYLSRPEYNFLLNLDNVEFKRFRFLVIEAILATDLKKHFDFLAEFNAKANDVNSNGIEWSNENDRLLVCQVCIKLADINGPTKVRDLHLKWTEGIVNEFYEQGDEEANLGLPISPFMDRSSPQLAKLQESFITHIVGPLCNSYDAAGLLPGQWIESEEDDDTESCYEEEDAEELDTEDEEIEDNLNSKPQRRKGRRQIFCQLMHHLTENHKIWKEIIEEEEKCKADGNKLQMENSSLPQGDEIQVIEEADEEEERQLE

| pIC50 | SMILES |
| --- | --- |
| 7.00 | Nc1nc2c(ncn2[C@@H]2O[C@@H]3COP(=O)(O)O[C@H]3[C@H]2O)c(=O)[nH]1 |
| 6.00 | Cc1[nH]c(=O)c(C#N)cc1-c1ccncc1 [MILRINONE] |

target: not listed separately; assay: Inhibition of bovine arterial Phosphodiesterase 4; set-up: species or system Bos taurus

| pIC50 | SMILES |
| --- | --- |
| < 5.00 | C[C@H]1CC(=O)NN=C1c1ccc2c(NCc3ccccc3)ncnc2c1 |
| < 5.00 | C[C@@H]1CC(=O)NN=C1c1ccc2c(NCc3ccccc3)ncnc2c1 |
| < 5.00 | CC1CC(=O)NN=C1c1ccc2c(NCc3ccccc3)ncnc2c1 (racemic) |
| 5.00 | Cc1[nH]c(=O)c(C#N)cc1-c1ccncc1 [MILRINONE] |
| 7.00 | COc1ccc(C2CNC(=O)C2)cc1OC1CCCC1 (configuration not stated) [ROLIPRAM] |
